Data set [1] is described as follows: Antipyretic effect (rectal temperature after yeast suspension and pyrago in male rats). In kind it is in vivo. The conditions noted are these: 40 mg./kg. orally, yeast and pyrago fever, recorded for 5 hours. The procedure:
To test the antipyretic effect, a 15% yeast suspension was administered to male rats each weighing 180 ±10 g. No food was given to the animals, they could consume, however, arbitrary amount of water. 16 hours after the administration of yeast the rectal body temperature of the animals was taken, and the animals were treated with pyrago in an intravenous dosage of 50 M bact./animal. The compound to be tested was administered orally into the animals, thereafter the change in rectal temperature both for the treated and the control animals was recorded for 5 hours, using an "Elab" type electrothermometer. Phenacetine, used as reference substance, and the compounds of the invention were administered in dosages of 40 mg./kg. body weight.

Data set [2] is described as follows: LD50 p.o. (acute toxicity). The conditions noted are these: in vivo, po, species not given.
The subject of a further data set is liver microsomal enzyme. Kind of data set: Enzyme inductive effect (shortening of hexobarbital sleeping time in Wistar female rats). In kind it is in vivo. The settings on record: for Mean duration of sleeping ± S.E.: 60 mg./kg. p.o., 24 hours later hexobarbital 40 mg./kg. i.v., female Wistar rats, control 19.4 ± 1.88. As for the experimental part: As reference substances, phenobarbital and phenacetine were used in the experiments. The pharmacological tests were carried out as follows:
To investigate the enzyme inductive effect, Wistar female rats, each weighing 40 to 50 g. were treated with pure solvent, or with a dosage of 60 mg./kg. of phenobarbital or the compound to be tested, respectively. 24 hours after this treatment 40 mg./kg. of hexobarbital were administered intravenously into the animals. The reduction of the elimination period and the liver enzyme induction was expressed as the shortening of the duration of sleeping.

Data set [3] relates to central nervous system. The settings on record: known effects at the test animals; cited from earlier work.
Data set [4] deals with central nervous system. Kind of data set: Central nervous system effects (anticonvulsive, rotarod muscle relaxation, sedative tests). In kind it is in vivo. The settings on record: in the dosage utilized. On the technique in general: The rotarod test checks motor coordination on a turning rod.

A value given as a limit tells only on which side of the number the result lay.

For `CC[N+]1(C)CCN(c2ccc(C(=O)c3ccccc3)cc2[N+](=O)[O-])CC1` [Example B11, 3-nitro-4-(N-methyl-piperazino)-benzophenone ethobromide], in data set [1], the Decrease of temperature is -1.1 °C. This molecule showed an LD50 in data set [2] above 3000 mg/kg.

On to `CCC1(c2ccccc2)C(=O)NC(=O)NC1=O` [Phenobarbital, reference compound], for which the “Mean duration of sleeping ± S.E.” value in the data set with liver microsomal enzyme (* = (below a significance level of 5 %)) turned out to be 14.2 ± 1.88 min. Moreover, in the data set with central nervous system [3], the “effects on the central nervous system” value is “significant effects on the central nervous system, which manifests at the test animals in ataxia, sedatio and anticonvulsive effect”.

`CCOc1ccc(NC(C)=O)cc1` [Phenacetine, reference compound] yielded a Decrease of temperature in data set [1] of -1.1 °C.

Take `O=C(c1ccccc1)c1ccc(N2CCOCC2)c([N+](=O)[O-])c1` [Example B2, 3-nitro-4-morpholino-benzophenone]: the “Mean duration of sleeping ± S.E.” value with liver microsomal enzyme (* = p>0.05 (below a significance level of 5 %)) came to 14.6 ± 1.65 min. For the same molecule, the inductive effect entry in the data set with liver microsomal enzyme (in words, compared with phenobarbital) is “the same as that of phenobarbital”. The same molecule returned an LD50 in data set [2] of 1200 mg/kg. Moreover, in the data set on central nervous system [4], the “effect on the central nervous system” value is reported as “no effect on the central nervous system”.

`CC(C)CN(CC(C)C)c1ccc(C(=O)c2ccccc2)cc1[N+](=O)[O-]` [Example B9, 3-Nitro-4-(N.N-diisobutylamino)-benzophenone] came in with a Decrease of temperature in data set [1] of -1.0 °C. The molecule also displayed an LD50 in data set [2] above 3000 mg/kg.

As usually defined, the LD50 is the dose expected to kill half of the subjects tested. A low value points to greater toxicity.

The record behind these values is patent publication US4064121A, “Substituted nitrobenzophenone derivatives and a process for the preparation thereof” (Richter Gedeon Vegyeszeti Gyar Rt., priority 1973, dated 1977).
